Where “and” joins values, the source holds several entries; their conditions need not be identical. Equal values may be shown once.
Tested on: Plasmodium falciparum
Assay: Calibr Malaria Delayed Death Assay SOP
Assay type: functional, organism-based
Settings: for IC50: Plasmodium falciparum

| SMILES | pIC50 | IC50 [nM] |
| --- | --- | --- |
| O=C(O)C(F)(F)F.c1ccc(N2CCCC3(CCN(Cc4ccsc4)C3)C2)nc1 (centres undefined) | 6.157 | 842 |
| Oc1ccc(Cl)cc1CNCc1ccccc1C(F)(F)F | 6.047 | 1080 |
| Clc1ccc(C2(CNC3=NCCN3)CC2)cc1.I | 6.323 | 505 |
| Nc1cc(-c2c[nH]nc2C2CCCN2CCCc2ccccc2)ccn1 (centres undefined) | 6.087 | 785 |
| COCCCN1CCCN(C(C)C(=O)Nc2cccc(I)c2)CC1 (centres undefined) | 6.54 | 483 |
| O=C(O)C(F)(F)F.O=C(O)C(F)(F)F.O=C(O)C(F)(F)F.c1ccc(CN2CCCC3(CCN(Cc4cccs4)C3)C2)nc1 (centres undefined) | 6.204 | 735 |
| CC(C)Oc1ncnc2c1CCN(Cc1ccco1)CC2.O=C(O)C(F)(F)F | 6.106 | 1020 |
| C=Cc1cccc(CN2C[C@@H](CN(C)CC)[C@@H](CO)C2)c1 | 5.976 | 1050 |
| CN(Cc1ccoc1)C(=O)C1(Oc2ccc(Cl)cc2)CCNCC1 | 6.021 | 977 |
| Cc1ccc2c(c1)CN(C(=O)C1CCCCC1)C(CN(C)C)CO2.Cl (centres undefined) | 6.082 | 880 |
| CCN(CC)CCN(C)c1nc(-c2ccc(Cl)cc2)nc2c1CNC2 | 6.071 | 1020 |
| COCCn1ccnc1CN(Cc1ccccn1)Cc1sccc1C | 6.065 | 650 |
| CN1CC[C@H](N(Cc2ccccc2)CC2CC2)C[C@H](O)C1 | 5.964 | 1570 |
| Cc1ccccc1CNCc1cc(Cl)ccc1O | 6.395 | 601 |
| NC(=O)c1cccc2nc([C@H]3CCN(Cc4ccccn4)C3)[nH]c12 | 7.592 | 27.5 |
| c1cc(N2CCC(CN3CCOCC3)CC2)c2sccc2n1 | 6.066 | 867 |
| COc1ccc(NC(=O)Nc2cnc(N3CCN(C)CC3)nc2)cc1Cl | 6.139 | 843 |
| CCC(NCc1ccccc1C)c1ccccc1OCC(=O)NC (centres undefined) | 6.158 | 731 |
| CN1[C@H](Cn2cccn2)C[C@@H]2CN(Cc3cccs3)CC[C@@H]21.O=C(O)C(F)(F)F.O=C(O)C(F)(F)F.O=C(O)C(F)(F)F | 6.221 | 593 |
| CO[C@@H]1CCN(Cc2ccoc2)C[C@@H]1Cc1ccccc1.O=C(O)C(F)(F)F | 5.938 | 1080 |
| Cc1ncc(CN(C)C2CCCN(CCc3ccccc3)C2)n1C (centres undefined) | 6.013 | 783 |
| CNc1nc(C)cc(NC2CCCN(C3Cc4ccccc4C3)C2)n1 (centres undefined) | 6.114 | 968 |

| SMILES | pIC50 | IC50 [nM] |
| --- | --- | --- |
| COc1cccc(OC)c1CN1CC(=O)N(c2ccc(C)cc2)CC1C (centres undefined) | 5.987 | 877 |
| COc1cccc(Cn2c(C3CCNCC3)cc3cccnc32)c1.Cl | 6.096 | 931 |
| COc1ccccc1CCN1CCCC(CN(C)Cc2ccc(C)o2)C1 (centres undefined) | 5.915 | 1030 |
| CC(C)n1ccnc1C1CCCN(c2ccnc3ccccc23)C1 (centres undefined) | 6.118 | 829 |
| Fc1ccc(Sc2ccccc2CNC2=NCCN2)cc1.I | 5.875 | 1210 |
| CCN1CCC2(CC1)CC(NCc1ccncc1)c1ccccc1O2.O=C(O)C(F)(F)F.O=C(O)C(F)(F)F.O=C(O)C(F)(F)F (centres undefined) | 6.198 | 579 |
| CCC(CNC(=O)CNC(C)=O)Oc1cccc(F)c1 (centres undefined) | 5.937 | 1020 |
| Cc1cccnc1CC(C)NC1Cc2ccccc2C1 (centres undefined) | 5.954 | 1290 |
| Cl.OC(CNCc1ccccc1C(F)(F)F)c1ccccc1 (centres undefined) | 6.179 | 709 |
| Cc1cccc(C)c1Nc1noc2c1CN(C(=O)c1ccn(C)n1)CC2 | 6.694 | 206 |
| Clc1ccc(C2(CNC3=NCCN3)CCCC2)cc1.I | 6.736 | 226 |
| Fc1ccccc1C1(CNC2CCOC3(CCOCC3)C2)CCCC1 (centres undefined) | 6.12 | 796 |
| CN(Cc1ccco1)C[C@H]1OC[C@@H]2CCN(Cc3ccccn3)C[C@@H]21.O=C(O)C(F)(F)F.O=C(O)C(F)(F)F.O=C(O)C(F)(F)F | 5.905 | 1720 |
| Cc1ccccc1N1CCCN(CC2(O)CCCNC2)CC1 (centres undefined) | 6.443 | 314 |
| c1cc(-c2n[nH]cc2-c2ccnc(N3CCCC3)n2)ccn1 | 7.446 | 30.5 |
| I.c1ccc(Sc2ccc3c(c2)OCO3)c(CNC2=NCCN2)c1 | 6.103 | 604 |
| CNS(=O)(=O)c1cccc(C(C)NCc2ccccc2OC)c1 (centres undefined) | 6.041 | 1090 |
| Cc1nn(C)cc1C1=NS(=O)(=O)N(C)C(C(=O)Nc2ccc(Cl)cc2)=C1 | 6.442 | 247 |
| Cl.OC1(c2ccc(F)cc2)CCN(Cc2ccccc2N2CCCC2)CC1 | 5.924 | 850 |
| CC(C)(C)n1cc(C2=CCN(CCc3ccccn3)CC2)cn1 | 6.143 | 1030 |
| OCCN1CCC(CNCc2ccccc2OC(F)(F)F)CC1 | 6.066 | 770 |
| CC(C)(C)CNCC1(O)CCCN(Cc2ccccc2F)C1=O (centres undefined) | 6.115 | 770 |

| SMILES | pIC50 | IC50 [nM] |
| --- | --- | --- |
| FC(F)(F)c1cc(C2CCNCC2)nc(-c2ccsc2)n1 | 6.171 | 626 |
| Cc1ccc(S(=O)(=O)N2CCC(N3CCCCC3)CC2)cc1C | 5.751 | 2130 |
| CN1CCN(Cc2ccccc2Oc2nccc3occc23)CC1 | 6.2 | 593 |
| CN(C)CC1CSCCCN1S(=O)(=O)Cc1cccc(F)c1 (centres undefined) | 6.26 | 751 |
| CN(Cc1ccsc1)c1nc(-c2ccccn2)nc2c1CCNCC2 | 6.41 | 399 |
| CCN1CCC2(CC1)CC(NCc1cccs1)c1ccccc1O2.O=C(O)C(F)(F)F.O=C(O)C(F)(F)F (centres undefined) | 6.431 | 287 |
| O=C(C(CNCc1ccsc1)c1ccccc1)N1CCOCC1 (centres undefined) | 6.002 | 1450 |
| CC(NCCN1CCC(N(C)C)CC1)c1ccc(Cl)s1 (centres undefined) | 6.149 | 996 |
| Cn1ccnc1CNC1CCCOc2c1ccc1ccccc21 (centres undefined) | 5.947 | 1200 |
| CN(CCc1cccc2ccccc12)Cc1nc(N)nc(N(C)C)n1 | 5.915 | 1240 |
| CC(NCC1CCN(CCO)CC1)c1cccc(Cl)c1 (centres undefined) | 6.336 | 442 |
| O=C(O)C(F)(F)F.c1ccc(C[C@H]2CN(C3CCOCC3)CC[C@H]2OCC2CC2)cc1 | 6.236 | 757 |
| CN(Cc1ccco1)C[C@H]1OC[C@@H]2CCN(Cc3ccsc3)C[C@@H]21.O=C(O)C(F)(F)F.O=C(O)C(F)(F)F | 6.029 | 1290 |
| CN(C)c1nc2c(c(NCc3cc(O)ncn3)n1)CCCC2 | 6.202 | 643 |
| Cn1ccnc1C(O)(CCNCc1ccc(Cl)o1)C(F)(F)F (centres undefined) | 5.844 | 1740 |
| CC(O)CN1CCC(CN(C)Cc2cc(F)cc3cccnc23)CC1 (centres undefined) | 5.98 | 1120 |
| CCN(C)CC1CCN(S(=O)(=O)c2cc(C)c(F)cc2Cl)C1 (centres undefined) | 5.917 | 986 |
| Cc1cnn(CCNCc2nccn2Cc2ccccc2)c1 | 6.212 | 395 |
| CNc1cc(C)nc(NC2CCCN(C3Cc4ccccc4C3)C2)n1 (centres undefined) | 6.074 | 775 |
| CN(Cc1ncc(C(C)(C)C)o1)CC1CCCN1c1cccnn1 (centres undefined) | 5.852 | 1620 |
| CN(Cc1ncc[nH]1)c1nc(-c2ccccn2)nc2c1CCNCC2 | 6.511 | 292 |
| Cc1cc(N2CCC(NC(C)Cc3ccsc3)CC2)nc(C)n1 (centres undefined) | 6.277 | 508 |

| SMILES | pIC50 | IC50 [nM] |
| --- | --- | --- |
| CC1CN(Cc2ccccc2Cn2cccn2)CCN1C (centres undefined) | 6.079 | 1080 |
| Cc1cc(C)n(C2CN(CC(O)c3cc(F)ccc3F)C2)n1 (centres undefined) | 6.757 | 223 |
| O=C(NCC1CCN(CCc2ccccc2)C1)c1cc(Cl)c[nH]1 (centres undefined) | 5.911 | 1260 |
| Oc1ccc(Cl)cc1CNCc1ccccc1Cl | 6.1 | 616 |
| Cn1cc(CN2CCCC(CCc3ccccc3C(F)(F)F)C2)cn1 (centres undefined) | 6.083 | 726 |
| Cc1cc(C)n(C2CN(CC(O)c3ccc(C(F)(F)F)cc3)C2)n1 (centres undefined) | 5.98 | 1030 |
| COc1cccc(CNCc2ccc(F)c(Cl)c2)c1O | 6.294 | 500 |
| CCC(CN1CCCCC1)NC(=O)C1(c2ccc(F)cc2)CC1.O=C(O)CC(O)(CC(=O)O)C(=O)O (centres undefined) | 6.19 | 709 |
| CN(C)[C@@H]1CCN(c2ncc(F)cn2)[C@H]1Cc1ccccc1.O=C(O)C(F)(F)F.O=C(O)C(F)(F)F | 6.038 | 868 |
| CC(NCC1CCN(CCO)CC1)c1ccc(OC(F)(F)F)cc1 (centres undefined) | 6.465 | 343 |
| COc1cc(CNCC(O)c2ccc(F)cc2F)cc2c1OCO2 (centres undefined) | 6.074 | 972 |
| CN(C(=O)c1ccon1)[C@@H]1CCC[C@@H](Oc2ccccc2)[C@@H]1O | 5.983 | 1190 |
| COc1ccc(NC(=O)c2ccc(-n3ncc(C#N)c3N)cc2)cn1 | 5.946 | 1110 |
| NC1CCCCN(Cc2ccccc2CS(=O)(=O)c2ccccc2)C1 (centres undefined) | 6.25 | 568 |
| Nc1nc2c(c(N3CCCC(c4nnc5ccccn45)C3)n1)CCNC2 (centres undefined) | 6.831 | 144 |
| COc1ccc(CN2CC[C@@H](O)[C@@H]2Cc2ccccc2)cc1.O=C(O)C(F)(F)F | 5.901 | 1540 |
| COc1ccc(CN2CCNC(=O)CC2)cc1SC(F)(F)F | 6.078 | 754 |
| Cc1cc(CN2CCc3nc(-c4ccncc4)nc(O)c3CC2)c(C)s1 | 5.926 and 6.258 | – |
| OCc1csc(N2CCCC(COc3cccc(F)c3)C2)n1 (centres undefined) | 6.326 | 363 |
| CCC(NCc1ccccc1Cl)c1ccccc1OCC(=O)NC (centres undefined) | 6.134 and 5.792 | – |
| CN(C)CCn1nc(C2CCN(Cc3ccccc3)C2)c2cccnc21 (centres undefined) | 5.827 | 2240 |
| Cc1cc(S(=O)(=O)NCC2CNCCOC2)c(C)cc1Cl (centres undefined) | 5.962 | 990 |
